Data: patent US8017612B2, “Piperazine compound and use thereof as a HCV polymerase inhibitor” (priority 2006, dated 2011)
pIC50: −log10 of the molar value.

Tests used:
[1] = target: T1, HCV polymerase (NS5B) type 1a (Hepatitis C virus genotype 1a, UniProt P26664); assay: Assay of enzyme (HCV polymerase) inhibitory activity, type 1a enzyme; format: biochemical, HCV type 1a (cloned from the blood of patients); conditions: HCV polymerase inhibitory activity IC50, 1a, type 1a enzyme
T1 construct: made in house; host or cells: Escherichia coli (by the 'similar method' of the 1b enzyme)
Summary of the method: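 His-tagged NS5B, C-terminal 47 residues deleted, type 1a at 1.5 μg/ml, with 5 μg/ml HCV 3′UTR substrate RNA, 50 μM ATP/GTP/CTP, 2 μM UTP plus [3H]UTP, pH 7.5 Tris, 5 mM MgCl2; 60 min at 25° C. TCA-precipitated RNA counted by scintillation; IC50 from radioactivity with vs. without compound.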

[2] = target: T2, HCV polymerase (NS5B) type 1b (Hepatitis C virus genotype 1b, UniProt P26663); assay: Assay of enzyme (HCV polymerase) inhibitory activity, type 1b enzyme; format: biochemical, HCV BK strain (type 1b); conditions: HCV polymerase inhibitory activity IC50, 1b, type 1b enzyme
T2 construct: a region encoding NS5B (J Virol 1991 March, 65(3), 1105-13, 544 amino acids after deletion of 47 amino acids on the C-terminal); 6xHis (C); made in house; host or cells: Escherichia coli
Summary of the method: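 His-tagged, C-terminally truncated NS5B (BK strain, 1b; 0.5 μg/ml) incubated with compound 60 min at 25 °C on 3′UTR-derived substrate RNA (5 μg/ml), 50 μM ATP/GTP/CTP, 2 μM UTP plus [3H]UTP, pH 7.5. Acid-precipitated RNA counted; IC50 from radioactivity with and without compound.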

| SMILES | pIC50 [1] | pIC50 [2] |
| --- | --- | --- |
| CCC(F)(F)c1ccc(CNC(=O)[C@H]2CN(C(=O)N3CCC(C(=O)O)CC3)CCN2S(=O)(=O)c2ccc(OC(F)(F)F)cc2)cc1 [Example 706, 1-[(R)-3-[4-(1,1-difluoro-propyl)-benzylcarbamoyl]-4-(4-trifluoromethoxy-benzenesulfonyl)-piperazine-1-carbonyl]-piperidine-4-carboxylic acid] | < 6.00 | < 6.00 |
| CCC(F)(F)c1ccc(CNC(=O)[C@H]2CN(c3cnc4ncncc4n3)CCN2S(=O)(=O)c2ccc(OC(F)(F)F)cc2)cc1 [Example 707, (R)-4-pteridin-6-yl-1-(4-trifluoromethoxy-benzenesulfonyl)-piperazine-2-carboxylic acid 4-(1,1-difluoro-propyl)-benzylamide] | > 7.00 | > 7.00 |
| CCC(F)(F)c1ccc(CNC(=O)[C@H]2CN(c3cnc4cncnc4n3)CCN2S(=O)(=O)c2ccc(I)cc2)cc1 [Example 708, (R)-1-(4-iodo-benzenesulfonyl)-4-pteridin-7-yl-piperazine-2-carboxylic acid 4-(1,1-difluoro-propyl)-benzylamide] | > 7.00 | > 7.00 |
| CCC(F)(F)c1ccc(CNC(=O)[C@H]2CN(c3cnc4cncnc4n3)CCN2S(=O)(=O)c2ccc(-c3cccs3)cc2)cc1 [Example 709, (R)-4-pteridin-7-yl-1-(4-thiophen-2-yl-benzenesulfonyl)-piperazine-2-carboxylic acid 4-(1,1-difluoro-propyl)-benzylamide] | > 7.00 | > 7.00 |
| CCOC(=O)c1ccc2ncc(N3CCN(S(=O)(=O)c4ccc(OC(F)(F)F)cc4)[C@@H](C(=O)NCc4ccc(C(F)(F)CC)cc4)C3)nc2c1 [Example 710, 3-[(R)-3-[4-(1,1-difluoro-propyl)-benzylcarbamoyl]-4-(4-trifluoromethoxy-benzenesulfonyl)-piperazin-1-yl]-quinoxaline-6-carboxylic acid ethyl ester] | 6.00 to 7.00 | 6.00 to 7.00 |
| CCC(F)(F)c1ccc(CNC(=O)[C@H]2CN(c3cnc4ccc(C(=O)O)cc4n3)CCN2S(=O)(=O)c2ccc(OC(F)(F)F)cc2)cc1 [Example 711, 3-[(R)-3-[4-(1,1-difluoro-propyl)-benzylcarbamoyl]-4-(4-trifluoromethoxy-benzenesulfonyl)-piperazin-1-yl]-quinoxaline-6-carboxylic acid] | 6.00 to 7.00 | > 7.00 |
| CCC(F)(F)c1ccc(CNC(=O)[C@H]2CN(c3cnc4cc(C(=O)O)ccc4n3)CCN2S(=O)(=O)c2ccc(OC(F)(F)F)cc2)cc1 [Example 712, 2-[(R)-3-[4-(1,1-difluoro-propyl)-benzylcarbamoyl]-4-(4-trifluoromethoxy-benzenesulfonyl)-piperazin-1-yl]-quinoxaline-6-carboxylic acid] | > 7.00 | > 7.00 |
| CCC(F)(F)c1ccc(CNC(=O)[C@H]2CN(c3cnc4cnccc4n3)CCN2S(=O)(=O)c2ccc(Cl)cc2)cc1 [Example 713, (R)-1-(4-chloro-benzenesulfonyl)-4-pyrido[3,4-b]pyrazin-2-yl-piperazine-2-carboxylic acid 4-(1,1-difluoro-propyl)-benzylamide] | > 7.00 | > 7.00 |
| CCC(F)(F)c1ccc(CNC(=O)[C@H]2CN(c3cnc4cnccc4n3)CCN2S(=O)(=O)c2ccc(C(C)(C)C)cc2)cc1 [Example 714, (R)-1-(4-tert-butyl-benzenesulfonyl)-4-pyrido[3,4-b]pyrazin-2-yl-piperazine-2-carboxylic acid 4-(1,1-difluoro-propyl)-benzylamide] | > 7.00 | > 7.00 |
| CCC(F)(F)c1ccc(CNC(=O)[C@H]2CN(c3nc4ccncc4s3)CCN2S(=O)(=O)c2ccc(OC(F)(F)F)cc2)cc1 [Example 715, (R)-4-thiazolo[5,4-c]pyridin-2-yl-1-(4-trifluoromethoxy-benzenesulfonyl)-piperazine-2-carboxylic acid 4-(1,1-difluoro-propyl)-benzylamide] | > 7.00 | > 7.00 |
| CC(=O)N1CCN(S(=O)(=O)c2ccc(OC(F)(F)F)cc2)[C@@H](C(=O)NCCCc2cccc(O)c2)C1 [Example 716, (R)-4-acetyl-1-(4-trifluoromethoxy-benzenesulfonyl)-piperazine-2-carboxylic acid [3-(3-hydroxy-phenyl)-propyl]-amide] | < 6.00 | < 6.00 |
| CC(=O)N1CCN(S(=O)(=O)c2ccc(OC(F)(F)F)cc2)[C@@H](C(=O)NCCCc2ccc(O)cc2)C1 [Example 717, (R)-4-acetyl-1-(4-trifluoromethoxy-benzenesulfonyl)-piperazine-2-carboxylic acid [3-(4-hydroxy-phenyl)-propyl]-amide] | < 6.00 | < 6.00 |
| CCCc1ccc(CNC(=O)[C@H]2CN(C(C)=O)CCN2S(=O)(=O)c2ccc(OC(F)(F)F)cc2)cn1 [Example 718, (R)-4-acetyl-1-(4-trifluoromethoxy-benzenesulfonyl)-piperazine-2-carboxylic acid (6-propyl-pyridin-3-ylmethyl)-amide] | < 6.00 | 6.00 to 7.00 |
| CC(=O)N1CCN(S(=O)(=O)c2ccc(OC(F)(F)F)cc2)[C@@H](C(=O)NCc2cnc(C)cn2)C1 [Example 719, (R)-4-acetyl-1-(4-trifluoromethoxy-benzenesulfonyl)-piperazine-2-carboxylic acid (5-methyl-pyrazin-2-ylmethyl)-amide] | < 6.00 | < 6.00 |
| CCCc1ccc(CNC(=O)[C@H]2CN(c3cnc4cncnc4n3)CCN2S(=O)(=O)c2ccc(OC(F)(F)F)cc2)cn1 [Example 720, (R)-4-pteridin-7-yl-1-(4-trifluoromethoxy-benzenesulfonyl)-piperazine-2-carboxylic acid (6-propyl-pyridin-3-ylmethyl)-amide] | > 7.00 | > 7.00 |
| Cc1cnc(CNC(=O)[C@H]2CN(c3cnc4cncnc4n3)CCN2S(=O)(=O)c2ccc(OC(F)(F)F)cc2)cn1 [Example 721, (R)-4-pteridin-7-yl-1-(4-trifluoromethoxy-benzenesulfonyl)-piperazine-2-carboxylic acid (5-methyl-pyrazin-2-ylmethyl)-amide] | < 6.00 | < 6.00 |
| CCCc1ccc(CNC(=O)[C@H]2CN(c3cnc4cncnc4n3)CCN2S(=O)(=O)c2ccc(OC(F)(F)F)cc2)cc1N [Example 722, (R)-4-pteridin-7-yl-1-(4-trifluoromethoxy-benzenesulfonyl)-piperazine-2-carboxylic acid 3-amino-4-propyl-benzylamide] | 6.00 to 7.00 | > 7.00 |
| CCCc1ccc(CNC(=O)[C@H]2CN(c3cnc4cncnc4n3)CCN2S(=O)(=O)c2ccc(OC(F)(F)F)cc2)cc1O [Example 723, (R)-4-pteridin-7-yl-1-(4-trifluoromethoxy-benzenesulfonyl)-piperazine-2-carboxylic acid 3-hydroxy-4-propyl-benzylamide] | 6.00 to 7.00 | > 7.00 |
| CCC(F)(F)c1ccc(CNC(=O)[C@H]2CN(c3cnc4cncnc4n3)CCN2S(=O)(=O)c2ccc(-c3ccccc3O)cc2)cc1 [Example 724, (R)-1-(2′-hydroxy-biphenyl-4-sulfonyl)-4-pteridin-7-yl-piperazine-2-carboxylic acid 4-(1,1-difluoro-propyl)-benzylamide] | > 7.00 | > 7.00 |
| CCC(F)(F)c1ccc(CNC(=O)[C@H]2CN(c3cnc4cncnc4n3)CCN2S(=O)(=O)c2ccc(-c3cccc(O)c3)cc2)cc1 [Example 725, (R)-1-(3′-hydroxy-biphenyl-4-sulfonyl)-4-pteridin-7-yl-piperazine-2-carboxylic acid 4-(1,1-difluoro-propyl)-benzylamide] | > 7.00 | > 7.00 |
| CCC(F)(F)c1ccc(CNC(=O)[C@H]2CN(c3cnc4cnccc4n3)CCN2S(=O)(=O)c2ccc([N+](=O)[O-])cc2)cc1 [Example 726, (R)-1-(4-nitro-benzenesulfonyl)-4-pyrido[3,4-b]pyrazin-2-yl-piperazine-2-carboxylic acid 4-(1,1-difluoro-propyl)-benzylamide] | > 7.00 | > 7.00 |
| CCC(F)(F)c1ccc(CNC(=O)[C@H]2CN(c3cnc4cnccc4n3)CCN2S(=O)(=O)c2ccc(-c3ccccc3)cc2)cc1 [Example 727, (R)-1-(biphenyl-4-sulfonyl)-4-pyrido[3,4-b]pyrazin-2-yl-piperazine-2-carboxylic acid 4-(1,1-difluoro-propyl)-benzylamide] | > 7.00 | > 7.00 |
| CCCc1ccc(CNC(=O)[C@H]2CN(c3ccc(C(=O)OC(C)(C)C)s3)CCN2S(=O)(=O)c2ccc(OC(F)(F)F)cc2)cc1 [Example 728, 5-[(R)-3-(4-propyl-benzylcarbamoyl)-4-(4-trifluoromethoxy-benzenesulfonyl)-piperazin-1-yl]-thiophene-2-carboxylic acid tert-butyl ester] | 6.00 to 7.00 | 6.00 to 7.00 |
| CCC(F)(F)c1ccc(CNC(=O)[C@H]2CN(c3cnc4cncnc4n3)CCN2S(=O)(=O)c2ccc3c(c2)CCC(CC(=O)O)CC3)cc1 (stereo partly drawn) [Example 729, (2-{(R)-2-[4-(1,1-difluoro-propyl)-benzylcarbamoyl]-4-pteridin-7-yl-piperazine-1-sulfonyl}-6,7,8,9-tetrahydro-5H-benzocyclohepten-7-yl)-acetic acid] | > 7.00 | > 7.00 |
